Measured values from patent EP3165222A1, “USE OF PHTHALIDE COMPOUND” (Everfront Biotech Inc., priority 2014, dated 2016).
Where two headings read alike, the source gives them in different places.

How the values were obtained:
ATXN3 protein = assay: In vitro cell test: GFP-ATXN3 protein aggregation/expression in transfected cells by fluorescence microscopy; type: cell-based, human; settings: pEGFP-C1-Ataxin3Q84 transfected HEK 293T or neural stem cells; 5 µg/ml for 24 hours; versus untreated groups; Figure 1
Procedure: In this experiment, the effects of BP and ligustilide on the protein expression level of SCA3 protein were analyzed. Frist, pEGFP-C1-Ataxin3Q84 plasmid (i.e., a plasmid comprising Ataxin gene with abnormal CAG repeat number (84Q)) containing green fluorescent protein or pEGFP-C1-Ataxin3Q28 plasmid (i.e., a plasmid comprising Ataxin gene with normal CAG repeat number (28Q)) (Addgene company, U.S.) was transfected into human embryonic kidney (HEK) cells 293T (Bioresource Collection and Research Center, Taiwan) or neural stem cells (NSC). The cells were then cultured in a DMEM medium (Dulbecco's modified Eagle's medium, Thermo) containing 10% fetal bovine serum (Gibco), and incubated in an incubator with 5% CO2 at 37°C. Then, the cells were treated with 5 µg/ml BP (A10353, purchased from Alfa Aesar, U.S.; with a purity of 95%) or ligustilide (5393-015M1, purchased from Pharmaron, China) for 24 hours. The protein aggregation of GFP-ATXN3 protein in the cells of each group was observed by a fluorescence microscopy. Wild type cells and cells transfected with green fluorescent protein (GFP) were used as the control group.

MJD84.2 transgenic mice [1] = assay: Local motor test in MJD84.2 transgenic mice (SCA3 mice); type: in vivo; settings: BP 100 or 500 mg/kg/bid, ligustilide 100 mg/kg/bid, versus untreated group and olive oil group; for total moving distance: Figure 5A; for moving times: Figure 5B; for moving time: Figure 5C
Procedure: (§1) MJD84.2 transgenic mice (i.e., the mice being transfected with ATXN3 gene with human 84 CAG repeat sequence, hereinafter referred to as "SCA3 mice") were used in this experiment. MJD84.2 transgenic mice were an animal model used for studying spinal cerebellar atrophy.
(§2) The MJD84.2 transgenic mice of […] were randomly divided into five groups, each group had six mice. The mice were treated with the following conditions for two weeks: (1) untreated group; (2) treated with olive oil (i.e., only treated with the adjuvant); (3) treated with 100 mg/kg/bid (bis in die) of BP; (4) treated with 500 mg/kg/bid of BP; (5) treated with 100 mg/kg/bid of ligustilide. The wild type mice (WT) was used as a control group. After 2 weeks, local motor and rotarod test were conducted.
Local motor test was performed to test the exercise ability of mice. 10-week-old mice were tested on rotarod once every three weeks. Then, the mice were placed in a transparent acrylic box 2 hours and were free to move. A behavioral test was conducted for 1 hour by using VersaMax 420 (AccuscanInstrumentsInc, USA), and the data was analyzed by statistical methods.

MJD84.2 transgenic mice [2] = assay: Rotarod test in MJD84.2 transgenic mice (SCA3 mice); type: in vivo; settings: BP 100 or 500 mg/kg/bid, ligustilide 100 mg/kg/bid; versus untreated group and olive oil group; Figure 6
Procedure: as §1, §2
Rotarod test was performed to test the balance and grip ability of mice. The mice were given practice two weeks before the first behavioral test. The experiment was conducted using an IITC rotarod (IITC Life Science Inc, USA). 10-week-old mice were tested on a rotarod once every three weeks. The test condition was set as a linear acceleration from 4 to 40 rpm within 300 seconds. The time (sec) that the mice fell from the rotarod (i.e., latency to fall) was recorded. […] After the rotarod test, the body weight of the mice were recorded. […]

Purkinje cells = assay: Immunohistochemistry staining of cerebellar slices of SCA3 mice; type: in vivo; settings: cerebellum slices; BP 100 or 500 mg/kg/bid, ligustilide 100 mg/kg/bid; sacrificed at 20 and 24 weeks; versus untreated and olive oil groups; Figure 7
Procedure: (§3) The MJD84.2 transgenic mice (i.e., the mice with modified ATXN3 gene) of eight weeks of age were randomly divided into five groups, with six mice in each group. The mice were treated with the following conditions: (1) untreated group; (2) treated with olive oil; (3) treated with 100 mg/kg/bid of BP; (4) treated with 500 mg/kg/bid of BP; (5) treated with 100 mg/kg/bid of ligustilide. Then, the mice were sacrificed at the age of 20 weeks and 24 weeks. Cerebellar slices staining and tissue protein extraction were performed (see Example 5). Whole brain tissue of the mice was fixed overnight with 3.7% formalin and embedded in paraffin. The samples were sectioned (4 µm) by using a Quanto kit (Thermo, USA) and mounted on a microscope slide.

calbindin = assay: Western blotting of cerebellum tissue of SCA3 mice, anti-calbindin antibody; type: in vivo; settings: BP 100 or 500 mg/kg/bid, ligustilide 100 mg/kg/bid, versus untreated and olive oil groups, Figure 8
Procedure: as §3
(§4) The cerebellums of the mice sacrificed in example 4 were separated from the whole brain, and the proteins in the cerebellums were extracted. The purified proteins were analyzed by Western blotting assay using an anti-ubiquitin antibody and an anti-calbindin antibody, respectively, to determine the changes in the protein expression level of ubiquitin and calbindin in the cerebellum tissue of SCA3 mice in each group. β-actin was used as an internal control group.

[3] = Safe dose test (toxicity of BP to zebrafish, survival rate); settings: in vivo, after 48 hours, 28.5°C, Figure 2, read-out: survival rate of the zebrafishes
Procedure: In this experiment, the zebrafishes that were used as the animal models in the experimental group were Tg (HuC:GFP), which is characterized by its primary sensory neurons (Rohon-Beard cells) that can produce fluorescence. The zebrafishes used in the control group were wild type zebrafishes. All of the zebrafishes were provided by TZCAS (Taiwan Zebrafish Core Facility at Academia Sinica, Taiwan) and TZCF (Taiwan Zebrafish Core Facility, Taiwan). First, the toxicity of BP to zebrafish was tested by injecting different dose of BP to zebrafishes. The zebrafishes were then kept at 28.5°C. After 48 hours, the survival rate of the zebrafishes was observed.

zebrafish = assay: Behavioral test in zebrafish injected with ATXN3 MO (tail stimulation); type: in vivo; settings: Figure 3
Procedure: Morpholinos (MO) was produced by modifying the structure of a fragment of DNA, which can block protein translation process of mRNA to inhibit the expression of a target protein. The ATXN3 MO used in this experiment has a sequence of 5'-[…]-3' (SEQ ID NO. : 1), and the standard used in the control group is 5'-[…]-3' (SEQ ID NO. : 2) (hereinafter referred to as "Ct MO"). Before injection, the MO was dissolved in ddH2O, stored at -20°C for used. Zebrafish eggs were micro-injected within about one hour after birth. After 21 to 48 hours post fertilization (hpf), the zebrafish eggs were micro-injected with ATXN3 MO or ATXN3 MO in combination with 250 mg/kg BP, 125 mg/kg BP or 62.5 mg/kg BP. After 48 hours, the fish tails were stimulated by tips, and the number of stimulation causing movement of the fish tails was measured.

motor neurons = assay: Confocal microscopy test of motor neurons in zebrafish injected with ATXN3 MO; type: in vivo; settings: ATXN3 MO in combination with 250 mg/kg BP; after 48 hours; Figure 4
Procedure: Zebrafish eggs were micro-injected with 300 nM/µl ATXN3 MO, 250 mg/kgBP, or ATXN3 MO in combination with 250 mg/kgBP, 125 mg/kg BP or 62.5 mg/kgBP. After 48 hours, the zebrafishes were enclosed in glass slides. The motor neurons in the living body were recorded by a confocal fluorescence microscopy.

ubiquitin = assay: Western blotting of cerebellum tissue of SCA3 mice, anti-ubiquitin antibody; type: in vivo; settings: mice treated with BP, versus untreated and olive oil groups, Figure 9
Procedure: as §3, §4

Row | Structure (SMILES) | fluorescent signal of Ataxin3Q84 (ATXN3 protein) | total moving distance (MJD84.2 transgenic mice [1]) | moving times (MJD84.2 transgenic mice [1]) | moving time (MJD84.2 transgenic mice [1]) | balance and grip ability (latency to fall) (MJD84.2 transgenic mice [2]) | number of Purkinje cells (Purkinje cells) | protein expression level of calbindin (calbindin) | survival at 48 h ([3]; 50 mg/kg BP injected) [%] | survival at 48 h ([3]; 250 mg/kg BP injected) [%] | survival at 48 h ([3]; 500 mg/kg BP injected) [%] | restoring the behavioral ability of the diseased zebrafishes (zebrafish; 250 mg/kg BP compared with the other BP doses) | amount of stimulation-caused movement of fish tails (zebrafish; ATXN3 MO in combination with 250, 125 or 62.5 mg/kg BP, after 48 hours, versus ATXN3 MO alone) | number of motor neurons (motor neurons) | content of the ubiquitin ubiquitination proteins (ubiquitin)
1 | CCCC=C1OC(=O)C2=C1CCC=C2 [ligustilide, 3-butylidene-4,5-dihydrophthalide] | significantly lower | higher | higher | higher | better | significantly higher | significantly higher | – | – | – | – | – | – | –
2 | CCCC=C1OC(=O)c2ccccc21 [BP, n-butylidenephthalide] | significantly lower | higher | higher | higher | better | significantly higher | significantly higher | > 75 | > 75 | 50 | the most obvious effect | restored (i.e., decreased) | can maintain the number of motor neurons | significantly higher
